Results published in ChEMBL document CHEMBL1201862, “PubChem BioAssay data set” (2004).
Active and inactive are the calls of the source.

Key:
[1] = molecular target: Glyceraldehyde-3-phosphate dehydrogenase (Homo sapiens, UniProt P04406)
[2] = molecular target: T1, Alkaline phosphatase, tissue-nonspecific isozyme (Homo sapiens, UniProt P05186); assay: potency against alkaline phosphatase TNAP – biochemical, luminescent, dose response, SAR follow-up (AID 1056)
T1 sequence (P05186 whole entry): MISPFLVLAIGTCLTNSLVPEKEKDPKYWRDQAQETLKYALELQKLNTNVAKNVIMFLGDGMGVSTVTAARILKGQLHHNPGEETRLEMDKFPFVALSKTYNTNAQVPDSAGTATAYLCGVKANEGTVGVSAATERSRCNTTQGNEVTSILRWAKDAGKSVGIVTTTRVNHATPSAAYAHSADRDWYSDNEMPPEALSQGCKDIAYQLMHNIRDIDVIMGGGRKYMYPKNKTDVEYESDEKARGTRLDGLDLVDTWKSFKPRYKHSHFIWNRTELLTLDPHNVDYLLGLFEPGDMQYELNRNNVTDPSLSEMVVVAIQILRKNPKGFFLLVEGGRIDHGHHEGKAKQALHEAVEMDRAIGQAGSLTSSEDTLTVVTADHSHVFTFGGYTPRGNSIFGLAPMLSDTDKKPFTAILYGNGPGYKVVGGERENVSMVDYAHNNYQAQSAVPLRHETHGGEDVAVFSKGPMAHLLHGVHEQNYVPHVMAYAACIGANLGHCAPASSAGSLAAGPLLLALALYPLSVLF

[3] = molecular target: T2, Leucine aminopeptidase (Plasmodium falciparum 3D7, UniProt Q8IL11); assay: P. falciparum M17LAP inhibitors, primary screen, biochemical, fluorogenic H-Leu-NHMec substrate, 1536-well (AID 1619); assay type: functional
T2 sequence (Q8IL11 whole entry): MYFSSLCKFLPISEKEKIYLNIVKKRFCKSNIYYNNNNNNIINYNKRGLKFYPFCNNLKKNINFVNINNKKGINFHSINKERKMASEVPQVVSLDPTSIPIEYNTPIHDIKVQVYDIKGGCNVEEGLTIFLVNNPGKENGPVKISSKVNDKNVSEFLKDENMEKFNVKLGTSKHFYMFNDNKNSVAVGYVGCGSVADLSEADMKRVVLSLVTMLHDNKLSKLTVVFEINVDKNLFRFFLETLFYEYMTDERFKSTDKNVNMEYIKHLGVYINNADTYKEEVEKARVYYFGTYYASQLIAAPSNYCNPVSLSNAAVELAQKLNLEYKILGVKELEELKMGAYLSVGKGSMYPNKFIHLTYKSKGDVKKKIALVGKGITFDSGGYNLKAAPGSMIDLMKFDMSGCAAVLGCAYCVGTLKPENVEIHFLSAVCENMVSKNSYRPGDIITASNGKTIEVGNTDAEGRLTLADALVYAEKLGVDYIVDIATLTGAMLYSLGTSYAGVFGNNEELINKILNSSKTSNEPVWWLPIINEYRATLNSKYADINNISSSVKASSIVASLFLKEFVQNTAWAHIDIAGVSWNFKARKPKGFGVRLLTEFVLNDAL

[4] = THP-1 cell cytotoxicity, dose response, cytotoxicity control for non-replicating M. tuberculosis project (AID 489025); assay type: functional
[5] = HepG2 cell cytotoxicity, dose response, cytotoxicity control for non-replicating M. tuberculosis project (AID 489018); assay type: functional; settings: Mycobacterium tuberculosis
[6] = Vero E6 cell cytotoxicity, dose response, cytotoxicity control for non-replicating M. tuberculosis project, secondary assay (AID 492998); assay type: functional, VeroE6; settings: Vero C1008
[7] = cells; assay type: functional
[8] = system: H9c2; assay: cells; assay type: functional, cell-based; settings: Rattus norvegicus, H9c2, Myocardium;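 note: confirmatory concentration-response retest of ultra-high-throughput screening hits for modulation of myocardial damage; cell death induced by hydrogen peroxide oxidative stress; compound pretreatment for 60 min then peroxide exposure for 2 h; potency is for protecting the cells against peroxide damage rather than for killing them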
[9] = Luminescence Cell-Based Dose Retest to Confirm Inhibitors of Cancer Stem Cells. [Related pubchem assays (depositor defined):AID2717, AID2721]; assay type: functional; settings: Homo sapiens
[10] = HEK-293T viability loss after treatment – luminescence, T-cell screen hits, cytotoxicity control for TCR NF-kB inhibitor project, dose response (AID 489026); assay type: functional, cell-based;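 note: cells exposed to compound about 14 hours before the viability readout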
[11] = molecular target: Nonstructural protein 1 (Influenza A virus, UniProt Q194T2); assay type: functional, Influenza A virus (A/California/07/2009(H1N1))
[12] = system: INS1; assay: INS-1E survival protection against cytokine death – cell-based, luminescence, retest, dose response (AID 449756); assay type: functional; settings: Rattus norvegicus;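 note: cell death triggered by IL-1 beta plus TNF-alpha plus IFN-gamma mixture; protective hits raise ATP signal compared with cytokine alone wells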
[13] = reduction of Shn3 3'UTR-driven luciferase in osteoblasts – cell-based, Clone20 osteoblasts, firefly luciferase, cherry-picked, dose response (AID 624132); assay type: functional;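 note: firefly luciferase luminescence from reporter carrying the Shn3 3'UTR in osteoblasts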
[14] = loss of viability in HepG2 cells – cell-based, CellTiter-Glo, cherry-picked, cytotoxicity control for Shn3 inhibitor project, dose response (AID 624134); assay type: functional
[15] = non-specific 3'UTR reporter inhibition in Clone20-Shn3RL – cell-based, Renilla luciferase, cherry-picked, counter-screen for Shn3 inhibitor project, dose response (AID 624133); assay type: functional
[16] = molecular target: T3, High affinity choline transporter 1 (Homo sapiens, UniProt Q9GZV3); assay: human choline transporter blockers, potency – cell-based, 5-point CRC, membrane potential dye, dose response (AID 504840); assay type: functional
T3 sequence (Q9GZV3 whole entry): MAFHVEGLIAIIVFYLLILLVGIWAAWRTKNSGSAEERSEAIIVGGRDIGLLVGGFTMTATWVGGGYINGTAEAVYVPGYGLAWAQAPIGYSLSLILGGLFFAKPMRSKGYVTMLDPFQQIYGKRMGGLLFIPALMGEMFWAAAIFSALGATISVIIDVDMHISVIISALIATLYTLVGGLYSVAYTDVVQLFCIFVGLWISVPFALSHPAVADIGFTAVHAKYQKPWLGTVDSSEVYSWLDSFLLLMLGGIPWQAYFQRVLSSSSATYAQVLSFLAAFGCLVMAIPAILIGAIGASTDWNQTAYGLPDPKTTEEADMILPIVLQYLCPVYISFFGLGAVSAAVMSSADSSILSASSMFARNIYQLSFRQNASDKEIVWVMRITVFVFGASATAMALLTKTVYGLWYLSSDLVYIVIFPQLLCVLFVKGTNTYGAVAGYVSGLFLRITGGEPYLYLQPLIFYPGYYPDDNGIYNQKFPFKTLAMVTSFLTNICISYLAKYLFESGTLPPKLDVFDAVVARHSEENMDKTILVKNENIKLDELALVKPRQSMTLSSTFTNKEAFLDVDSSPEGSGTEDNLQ

[17] = molecular target: Genome polyprotein (dengue virus type 2, UniProt P29990); assay: flavivirus cap methylation enzyme inhibition – biochemical, confirmation dose response, primary screen (AID 588689); assay type: functional
[18] = NIH-3T3 fibroblast cytotoxicity, dose response, cytotoxicity control, cell-based, fluorescence, Alamar Blue, secondary assay (AID 2327); assay type: functional;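 note: NIH-3T3 mouse fibroblasts cultured with fluconazole at 8 µg/mL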
[19] = fluconazole-exposed Candida albicans growth modulators – fluorescence, retest, confirmation (AID 2467); assay type: functional, cell-based
[20] = microbe, parasite or virus in culture; assay type: functional; settings: Mycobacterium tuberculosis
[21] = HEK-293T cell viability reduction – luminescence, B-cell screen hits, cytotoxicity control for BCR NF-kB inhibitor project, dose response (AID 489021); assay type: functional, cell-based;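 note: HEK-293T cells carrying an NF-kB luciferase reporter; cells exposed to compound for about 14 hours before viability readout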
[22] = system: BJ; assay: BJ-TERT fibroblast viability loss – cell-based, RAS-independent, luminescence, dose response (AID 1933); assay type: functional; settings: Homo sapiens
[23] = system: BJ; assay: cells; assay type: functional, cell-based; settings: Homo sapiens
[24] = system: BJ; assay: BJ-TERT-LT-ST fibroblast viability loss – cell-based, RAS-independent, luminescence, dose response (AID 1935); assay type: functional; settings: Homo sapiens;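 note: BJ fibroblasts immortalized with TERT plus LT and ST oncogenes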
[25] = DRD fibroblast viability loss – cell-based, non-viral oncogenic, luminescence, dose response (AID 1934); assay type: functional; settings: Homo sapiens
[26] = molecular target: T4, Endoribonuclease toxin MazF (Escherichia coli K-12, UniProt P0AE70); assay: activation of MazEF endoribonuclease cleavage – biochemical, fluorescence, single-stranded RNA substrate, uHTS hits, dose response (AID 588481); assay type: functional
T4 sequence (P0AE70 whole entry): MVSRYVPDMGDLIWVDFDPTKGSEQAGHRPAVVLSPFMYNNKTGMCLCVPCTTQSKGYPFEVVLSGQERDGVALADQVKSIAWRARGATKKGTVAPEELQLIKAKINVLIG

[27] = molecular target: T4, Endoribonuclease toxin MazF; assay: substrate-only fluorescence increase artefacts – biochemical, single-stranded RNase substrate, counter-screen for MazEF activator project, dose response (AID 588502); assay type: functional
[28] = system: Streptococcus sp. 'group A'; assay: Streptococcus pyogenes SK(-)GAS viability under kanamycin – luminescence, BacTiterGlo, confirmation, counter-screen for streptokinase expression inhibitor project, dose response (AID 1900); assay type: functional, organism-based
[29] = cells; assay type: functional, cell-based
[30] = molecular target: T5, Streptokinase A (Streptococcus pyogenes serotype M1, UniProt P10520); assay: viability-normalized secreted streptokinase activity reduction – plasminogen activation absorbance, OD405, dose response (AID 1914); assay type: functional, Streptococcus pyogenes M1 GAS;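 note: secreted streptokinase activity via plasminogen activation per viability signal from cell pellet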
T5 sequence (P10520 whole entry): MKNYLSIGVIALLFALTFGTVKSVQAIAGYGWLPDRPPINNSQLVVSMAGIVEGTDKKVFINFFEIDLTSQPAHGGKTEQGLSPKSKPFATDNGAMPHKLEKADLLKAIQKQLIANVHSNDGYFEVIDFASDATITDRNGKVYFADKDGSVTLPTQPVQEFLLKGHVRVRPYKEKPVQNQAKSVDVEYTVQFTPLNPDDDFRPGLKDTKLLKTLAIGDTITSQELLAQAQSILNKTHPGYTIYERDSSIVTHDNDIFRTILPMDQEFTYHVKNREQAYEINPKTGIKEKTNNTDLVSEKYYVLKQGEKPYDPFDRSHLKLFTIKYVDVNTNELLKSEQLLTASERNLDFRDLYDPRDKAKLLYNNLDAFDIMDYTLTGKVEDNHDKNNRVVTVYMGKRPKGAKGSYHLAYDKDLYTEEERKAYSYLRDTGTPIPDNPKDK

[31] = cells; assay type: functional, cell-based; remark: listed apart in the source
[32] = system: Streptococcus; assay: GAS UMAA2166 growth inhibition – luminescence, BacTiterGlo, counter-screen for streptokinase expression inhibitor project, dose response (AID 1915); assay type: functional, organism-based;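 note: potency for reduction of bacterial viability or growth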
[33] = system: HEK293; assay: EBV LMP1 TES2 canonical NF-kB signalling blockers – cell-based, HEK293, luciferase, cherry-pick, dose response (AID 588343); assay type: functional; settings: Homo sapiens

Chain of Glyceraldehyde-3-phosphate dehydrogenase (P04406 whole entry): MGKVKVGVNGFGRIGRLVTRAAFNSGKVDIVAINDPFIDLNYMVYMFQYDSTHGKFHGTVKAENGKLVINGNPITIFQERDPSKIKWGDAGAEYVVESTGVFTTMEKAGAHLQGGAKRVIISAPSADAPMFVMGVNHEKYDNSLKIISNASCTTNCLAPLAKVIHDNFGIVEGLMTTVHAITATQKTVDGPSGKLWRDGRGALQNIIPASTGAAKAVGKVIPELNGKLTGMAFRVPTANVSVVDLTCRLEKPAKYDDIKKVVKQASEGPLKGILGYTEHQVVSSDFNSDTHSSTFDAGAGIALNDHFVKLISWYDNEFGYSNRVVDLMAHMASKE
Chain of Genome polyprotein (P29990 2492-3391 limits assumed): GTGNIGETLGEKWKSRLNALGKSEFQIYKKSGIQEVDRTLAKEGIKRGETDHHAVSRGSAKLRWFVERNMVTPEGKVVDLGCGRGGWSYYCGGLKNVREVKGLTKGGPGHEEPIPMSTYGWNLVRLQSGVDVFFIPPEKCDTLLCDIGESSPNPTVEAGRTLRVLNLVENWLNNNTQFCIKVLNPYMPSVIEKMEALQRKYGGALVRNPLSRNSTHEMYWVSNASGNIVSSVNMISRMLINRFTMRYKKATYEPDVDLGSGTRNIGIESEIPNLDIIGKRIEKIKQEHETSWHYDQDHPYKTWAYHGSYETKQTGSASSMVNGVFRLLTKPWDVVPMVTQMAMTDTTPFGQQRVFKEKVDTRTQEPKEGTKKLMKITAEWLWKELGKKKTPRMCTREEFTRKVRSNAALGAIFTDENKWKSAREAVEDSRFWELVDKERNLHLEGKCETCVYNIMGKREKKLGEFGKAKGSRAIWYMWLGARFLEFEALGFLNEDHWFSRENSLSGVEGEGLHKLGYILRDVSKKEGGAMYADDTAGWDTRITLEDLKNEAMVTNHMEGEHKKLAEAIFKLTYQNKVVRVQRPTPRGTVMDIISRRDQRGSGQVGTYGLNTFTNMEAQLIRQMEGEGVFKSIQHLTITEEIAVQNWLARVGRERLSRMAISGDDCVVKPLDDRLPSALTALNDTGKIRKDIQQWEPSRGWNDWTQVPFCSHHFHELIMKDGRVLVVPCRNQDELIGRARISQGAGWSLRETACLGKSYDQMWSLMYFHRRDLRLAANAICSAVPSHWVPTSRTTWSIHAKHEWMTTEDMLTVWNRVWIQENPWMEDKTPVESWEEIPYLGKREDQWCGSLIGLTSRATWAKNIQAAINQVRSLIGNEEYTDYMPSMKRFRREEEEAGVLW
Chain of Nonstructural protein 1 (Q194T2 whole entry): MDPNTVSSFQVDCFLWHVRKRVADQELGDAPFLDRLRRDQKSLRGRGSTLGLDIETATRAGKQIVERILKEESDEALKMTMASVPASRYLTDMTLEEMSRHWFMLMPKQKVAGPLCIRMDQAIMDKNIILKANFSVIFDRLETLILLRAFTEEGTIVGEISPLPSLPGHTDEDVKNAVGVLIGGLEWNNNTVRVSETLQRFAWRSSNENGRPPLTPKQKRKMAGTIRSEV

## CCOc1ccc(S(=O)(=O)Nc2nc3ccccc3nc2Cl)cc1
[1]
  IC50: > 100 µM (not active)
[2]
  IC50: > 100 µM (inactive)

## O=C(O)COc1ccccc1/C=C1\SC(=O)N(Cc2ccc(F)cc2)C1=O
[3]
  IC50: 34.8 µM (active)

## CCOC(=O)Cc1c(C)nc2c(-c3ccc(Cl)cc3)cnn2c1O
[4]
  CC50: 29 µM (active)
[5]
  CC50: > 20 µM (active)
[6]
  CC50: 17.5 µM (active)
[7]
  IC50: 6.28 µM (active)
[8]
  IC50: > 79 µM (inactive)

## Cc1ccnc2c1ccc1c(C)ccnc12
[9]
  AC50: 1.54 µM (active)
[10]
  IC50: > 80 µM (inactive)
[11]
  IC50: 0.472 µM (active)
[12]
  AC50: 1.92 µM (active)
[13]
  AC50: 0.857 µM (active)
[14]
  AC50: > 70 µM (inactive)
[15]
  AC50: > 70 µM (inactive)

## Cn1nc(C(=O)O)cc1-c1ccc(F)cc1
[1]
  IC50: > 100 µM (not active)
[2]
  IC50: > 100 µM (inactive)

## CC(C)(C)C(=O)Oc1cccc(Nc2ncnc3ccccc23)c1
[16]
  IC50: 13.8 µM (active)

## O=C(O)CCc1nnc(SCC(=O)Nc2ccc(Br)cc2)nc1O
[3]
  IC50: 2.45 µM (active)

## CCCCCCSc1nc(O)c(C2OC(=O)c3c2ccc(OC)c3OC)c(=O)n1CC (stereo not drawn)
[3]
  IC50: 3 µM (active)
[17]
  IC50: 56.9 µM (active)

## CCCCN(C)S(=O)(=O)c1ccc(C(=O)Nc2nnc(-c3ccco3)o2)cc1
[18]
  EC50: > 160 µM (inconclusive)
[19]
  EC50: 2.63 µM (active)
[20]
  CC50: 11.6 µM (active)
[4]
  CC50: 10.5 µM (active)
[5]
  CC50: 12.5 µM (active)
[6]
  CC50: 6.27 µM (active)
[7]
  IC50: 6.64 µM (active)

## C=CCN1C(=O)NC(=O)/C(=C(/CC)NC(C)c2ccccc2)C1=O (stereo not drawn)
[21]
  IC50: > 80 µM (inactive)
[16]
  IC50: 1.91 µM (active)

## Cc1n[nH]c(C)c1CCCCOc1ccccc1[N+](=O)[O-]
[16]
  IC50: 12.6 µM (active)

## Cc1cc(S(=O)(=O)c2ccc([N+](=O)[O-])cn2)ccc1Br
[22]
  EC50: 3.26 µM (active)
[23]
  EC50: 17.6 µM (active)
[24]
  EC50: 17 µM (active)
[25]
  EC50: 6.93 µM (inconclusive)
[4]
  CC50: 12.2 µM (active)
[9]
  AC50: 1.86 µM (active)
[5]
  CC50: 18 µM (active)
[6]
  CC50: 13.6 µM (active)
[7]
  IC50: 0.68 µM (active)
[13]
  AC50: 3.69 µM (active)
[14]
  AC50: 21.4 µM (active)
[15]
  AC50: 17.5 µM (active)

## CCCCOc1ccc(OCCCC)c2c1NC1(N2)C(=O)N(C(C)=O)c2ccccc21
[26]
  EC50: > 99 µM (inactive)
[27]
  EC50: > 99 µM (inactive)

## Cn1nc(C(F)(F)F)c(-c2ccccc2)c1NC(=O)c1cccnc1
[16]
  IC50: 13.2 µM (active)

## COc1ccc(S(=O)(=O)Nc2cnc3ccccc3c2)c(OC)c1
[1]
  IC50: > 100 µM (not active)
[2]
  IC50: 19.5 µM (active)

## c1ccc(CN2CCN=C2c2cccnc2)cc1
[1]
  IC50: > 100 µM (not active)
[2]
  IC50: > 100 µM (inactive)

## CCCc1cc(C(=O)N/N=C/c2ccc(CC)s2)c2ccccc2n1
[10]
  IC50: > 80 µM (inactive)

## CCOc1cccc(/C=N/Nc2ccc(S(=O)(=O)N(CC)CC)cn2)c1O
[28]
  EC50: 6.87 µM (active)
[22]
  EC50: 2.86 µM (active)
[29]
  EC50: > 350 µM (not active)
[30]
  EC50: > 150 µM (not active)
[23]
  EC50: 4.12 µM (active)
[31]
  EC50: 49.6 µM (active)
[24]
  EC50: 7.7 µM (active)
[25]
  EC50: 3.94 µM (active)
[32]
  EC50: 9.29 µM (active)
[10]
  IC50: > 80 µM (inactive)
[33]
  AC50: 4.85 µM (active)
[12]
  AC50: 1.12 µM (active)
